Experimental data published in patent publication US10681909B2, “Herbicidal triazoles” (FMC Corporation, priority 2014, dated 2020).

How the values were obtained:
Conditions in all cases: scale 0 to 100
beggarticks = assay: Test E preemergence; assay type: in vivo, Bidens pilosa
Description: (§1) Seeds of plant species selected from corn (Zea mays), soybean (Glycine max), lambsquarters (Chenopodium album), poinsettia, wild (wild poinsettia, Euphorbia heterophylla), pigweed, palmer (palmer pigweed, Amaranthus palmeri), waterhemp (common waterhemp, Amaranthus rudis), surinam grass (Brachiaria decumbens), crabgrass, large (large crabgrass, Digitaria sanguinalis), crabgrass, Brazilian (Brazilian crabgrass, Digitaria horizontalis), panicum, fall (fall panicum, Panicum dichotomiflorum), foxtail, giant (giant foxtail, Setaria faberii), foxtail, green (green foxtail, Setaria viridis), goosegrass (Eleusine indica), johnsongrass (Sorghum halepense), ragweed (common ragweed, Ambrosia elatior), barnyardgrass (Echinochloa crus-galli), sandbur (southern sandbur, Cenchrus echinatus), arrowleaf sida (Sida rhombifolia), ryegrass, Italian (Italian ryegrass, Lolium multiflorum), dayflower, VA (Virginia dayflower, Commelina virginica), field bindweed (Convolvulus arvensis), cocklebur (common cocklebur, Xanthium strumarium), morningglory (Ipomoea coccinea), nightshade (eastern black nightshade, Solanum ptycanthum), kochia (Kochia scoparia), nutsedge, yellow (yellow nutsedge, Cyperus esculentus), smartweed (ladysthumb smartweed, Polygonum persicaria), velvetleaf (Abutilon theophrasti), horseweed (Conyza canadensis), and beggarticks (hairy beggarticks, Bidens pilosa), were planted into a silt loam soil and treated preemergence with test chemicals formulated in a non-phytotoxic solvent mixture which included a surfactant.
(§2) At the same time, plants from these crop and weed species and also waterhemp_RES1, (ALS & Triazine resistant common waterhemp, Amaranthus rudis), and waterhemp_RES2, (ALS & HPPD resistant common waterhemp, Amaranthus rudis) were planted in pots containing Sunshine Redi-Earth® planting medium comprising spaghnum peat moss, vermiculite, starter nutrients and dolomitic limestone were treated with postemergence applications of test chemicals formulated in the same manner. Plants ranged in height from 2 to 18 cm for postemergence treatments (1- to 4-leaf stage). Treated plants and controls were maintained in a greenhouse for 14 to 21 d, after which time all species were compared to controls and visually evaluated. Plant response ratings, summarized in Table E, are based on a scale of 0 to 100 where 0 is no effect and 100 is complete control. A dash (-) response means no test result.

foxtail, giant = assay: Test E preemergence; assay type: in vivo, Setaria faberii
Description: as §1, §2

pigweed, palmer = assay: Test E preemergence; assay type: in vivo, Amaranthus palmeri
Description: as §1, §2

foxtail, green = assay: Test E preemergence; assay type: in vivo, Setaria viridis
Description: as §1, §2

barnyardgrass [1] = assay: Test E postemergence; assay type: in vivo, Echinochloa crus-galli
Description: as §1, §2

panicum, fall = assay: Test E postemergence; assay type: in vivo, Panicum dichotomiflorum
Description: as §1, §2

sandbur = assay: Test E postemergence; assay type: in vivo, Cenchrus echinatus
Description: as §1, §2

soybean = assay: Test E postemergence; assay type: in vivo, Glycine max
Description: as §1, §2

arrowleaf sida = assay: Test E postemergence; assay type: in vivo, Sida rhombifolia
Description: as §1, §2

dayflower, VA = assay: Test E preemergence; assay type: in vivo, Commelina virginica
Description: as §1, §2

surinam grass = assay: Test E preemergence; assay type: in vivo, Brachiaria decumbens
Description: as §1, §2

barnyardgrass [2] = assay: Test E preemergence; assay type: in vivo, Echinochloa crus-galli
Description: as §1, §2

nutsedge, yellow = assay: Test E preemergence; assay type: in vivo, Cyperus esculentus
Description: as §1, §2

horseweed [3] = assay: Test E postemergence; assay type: in vivo, Conyza canadensis
Description: as §1, §2

horseweed [4] = assay: Test E preemergence; assay type: in vivo, Conyza canadensis
Description: as §1, §2

Molecule `CCOc1nc(-c2ccccc2)nn1Cc1ccnc(C(F)(F)F)c1` [Compound 27] has a Plant response rating (beggarticks; 16 g ai/ha) of 0, a Plant response rating (beggarticks; 31 g ai/ha) of 0 and a Plant response rating (beggarticks; 62 g ai/ha) of 0. The Plant response rating (beggarticks; 125 g ai/ha) was 0, the Plant response rating (foxtail, giant; 16 g ai/ha) was 75 and the Plant response rating (foxtail, giant; 31 g ai/ha) was 95. The Plant response rating (foxtail, giant; 62 g ai/ha) was 100, the Plant response rating (foxtail, giant; 125 g ai/ha) was 100 and the Plant response rating (pigweed, palmer; 16 g ai/ha) was 85. It also gave a Plant response rating (pigweed, palmer; 31 g ai/ha) of 100, a Plant response rating (pigweed, palmer; 62 g ai/ha) of 100 and a Plant response rating (pigweed, palmer; 125 g ai/ha) of 100. It also gave a Plant response rating (foxtail, green; 16 g ai/ha) of 75, a Plant response rating (foxtail, green; 31 g ai/ha) of 100 and a Plant response rating (foxtail, green; 62 g ai/ha) of 100. For the same molecule, the Plant response rating (foxtail, green; 125 g ai/ha) was 100, the Plant response rating (barnyardgrass [1]; 16 g ai/ha) was 15 and the Plant response rating (barnyardgrass [1]; 31 g ai/ha) was 20. For the same molecule, the Plant response rating (barnyardgrass [1]; 62 g ai/ha) was 30, the Plant response rating (barnyardgrass [1]; 125 g ai/ha) was 50 and the Plant response rating (panicum, fall; 16 g ai/ha) was 10. It also gave a Plant response rating (panicum, fall; 31 g ai/ha) of 10, a Plant response rating (panicum, fall; 62 g ai/ha) of 15 and a Plant response rating (panicum, fall; 125 g ai/ha) of 30. It also gave a Plant response rating (sandbur; 16 g ai/ha) of 0, a Plant response rating (sandbur; 31 g ai/ha) of 20 and a Plant response rating (sandbur; 62 g ai/ha) of 30. It also gave a Plant response rating (sandbur; 125 g ai/ha) of 30, a Plant response rating (soybean; 16 g ai/ha) of 70 and a Plant response rating (soybean; 31 g ai/ha) of 80. For the same molecule, the Plant response rating (soybean; 62 g ai/ha) was 80, the Plant response rating (soybean; 125 g ai/ha) was 95 and the Plant response rating (arrowleaf sida; 16 g ai/ha) was 70. For the same molecule, the Plant response rating (arrowleaf sida; 31 g ai/ha) was 80, the Plant response rating (arrowleaf sida; 62 g ai/ha) was 90 and the Plant response rating (arrowleaf sida; 125 g ai/ha) was 100. For the same molecule, the Plant response rating (dayflower, VA; 16 g ai/ha) was 10, the Plant response rating (dayflower, VA; 31 g ai/ha) was 10 and the Plant response rating (dayflower, VA; 62 g ai/ha) was 10. For the same molecule, the Plant response rating (dayflower, VA; 125 g ai/ha) was 50, the Plant response rating (surinam grass; 16 g ai/ha) was 0 and the Plant response rating (surinam grass; 31 g ai/ha) was 0. It also gave a Plant response rating (surinam grass; 62 g ai/ha) of 10, a Plant response rating (surinam grass; 125 g ai/ha) of 15 and a Plant response rating (barnyardgrass [2]; 16 g ai/ha) of 10. For the same molecule, the Plant response rating (barnyardgrass [2]; 31 g ai/ha) was 25, the Plant response rating (barnyardgrass [2]; 62 g ai/ha) was 90 and the Plant response rating (barnyardgrass [2]; 125 g ai/ha) was 95. The Plant response rating (nutsedge, yellow; 16 g ai/ha) was 0, the Plant response rating (nutsedge, yellow; 31 g ai/ha) was 0 and the Plant response rating (nutsedge, yellow; 62 g ai/ha) was 0. It also gave a Plant response rating (nutsedge, yellow; 125 g ai/ha) of 15.

`COc1nc(-c2ccc(Cl)cc2)nn1Cc1ccnc(C(F)(F)F)c1` [Compound 28] gave a Plant response rating (horseweed [3]; 31 g ai/ha) of 20, a Plant response rating (horseweed [3]; 62 g ai/ha) of 20 and a Plant response rating (horseweed [3]; 125 g ai/ha) of 35. The Plant response rating (horseweed [3]; 250 g ai/ha) was 40, the Plant response rating (barnyardgrass [1]; 31 g ai/ha) was 20 and the Plant response rating (barnyardgrass [1]; 62 g ai/ha) was 25. The Plant response rating (barnyardgrass [1]; 125 g ai/ha) was 40, the Plant response rating (barnyardgrass [1]; 250 g ai/ha) was 40 and the Plant response rating (panicum, fall; 31 g ai/ha) was 15. For the same molecule, the Plant response rating (panicum, fall; 62 g ai/ha) was 20, the Plant response rating (panicum, fall; 125 g ai/ha) was 20 and the Plant response rating (panicum, fall; 250 g ai/ha) was 20. The Plant response rating (sandbur; 31 g ai/ha) was 20, the Plant response rating (sandbur; 62 g ai/ha) was 30 and the Plant response rating (sandbur; 125 g ai/ha) was 30. For the same molecule, the Plant response rating (sandbur; 250 g ai/ha) was 40, the Plant response rating (soybean; 31 g ai/ha) was 70 and the Plant response rating (soybean; 62 g ai/ha) was 75. For the same molecule, the Plant response rating (soybean; 125 g ai/ha) was 95, the Plant response rating (soybean; 250 g ai/ha) was 80 and the Plant response rating (arrowleaf sida; 31 g ai/ha) was 70. It also gave a Plant response rating (arrowleaf sida; 62 g ai/ha) of 80, a Plant response rating (arrowleaf sida; 125 g ai/ha) of 80 and a Plant response rating (arrowleaf sida; 250 g ai/ha) of 75.

In the case of `Fc1ccc(-c2nc(OCC(F)(F)F)n(Cc3ccnc(C(F)(F)F)c3)n2)cc1` [Compound 30], the Plant response rating (beggarticks; 31 g ai/ha) is reported as 0, the Plant response rating (beggarticks; 62 g ai/ha) is reported as 10 and the Plant response rating (beggarticks; 125 g ai/ha) is reported as 20. The Plant response rating (beggarticks; 250 g ai/ha) was 50, the Plant response rating (foxtail, giant; 31 g ai/ha) was 95 and the Plant response rating (foxtail, giant; 62 g ai/ha) was 98. For the same molecule, the Plant response rating (foxtail, giant; 125 g ai/ha) was 98, the Plant response rating (foxtail, giant; 250 g ai/ha) was 100 and the Plant response rating (pigweed, palmer; 31 g ai/ha) was 90. It also gave a Plant response rating (pigweed, palmer; 62 g ai/ha) of 100, a Plant response rating (pigweed, palmer; 125 g ai/ha) of 100 and a Plant response rating (pigweed, palmer; 250 g ai/ha) of 100. For the same molecule, the Plant response rating (horseweed [4]; 31 g ai/ha) was 100, the Plant response rating (horseweed [4]; 62 g ai/ha) was 100 and the Plant response rating (horseweed [4]; 125 g ai/ha) was 100. For the same molecule, the Plant response rating (horseweed [4]; 250 g ai/ha) was 100, the Plant response rating (foxtail, green; 31 g ai/ha) was 95 and the Plant response rating (foxtail, green; 62 g ai/ha) was 100. It also gave a Plant response rating (foxtail, green; 125 g ai/ha) of 100, a Plant response rating (foxtail, green; 250 g ai/ha) of 100 and a Plant response rating (barnyardgrass [1]; 31 g ai/ha) of 30. It also gave a Plant response rating (barnyardgrass [1]; 62 g ai/ha) of 50, a Plant response rating (barnyardgrass [1]; 125 g ai/ha) of 90 and a Plant response rating (barnyardgrass [1]; 250 g ai/ha) of 100. It also gave a Plant response rating (panicum, fall; 31 g ai/ha) of 20, a Plant response rating (panicum, fall; 62 g ai/ha) of 30 and a Plant response rating (panicum, fall; 125 g ai/ha) of 35. It also gave a Plant response rating (panicum, fall; 250 g ai/ha) of 30, a Plant response rating (sandbur; 31 g ai/ha) of 20 and a Plant response rating (sandbur; 62 g ai/ha) of 30. For the same molecule, the Plant response rating (sandbur; 125 g ai/ha) was 30, the Plant response rating (sandbur; 250 g ai/ha) was 35 and the Plant response rating (soybean; 31 g ai/ha) was 75. The Plant response rating (soybean; 62 g ai/ha) was 80, the Plant response rating (soybean; 125 g ai/ha) was 85 and the Plant response rating (soybean; 250 g ai/ha) was 95. For the same molecule, the Plant response rating (arrowleaf sida; 31 g ai/ha) was 100, the Plant response rating (arrowleaf sida; 62 g ai/ha) was 95 and the Plant response rating (arrowleaf sida; 125 g ai/ha) was 95. For the same molecule, the Plant response rating (arrowleaf sida; 250 g ai/ha) was 98, the Plant response rating (dayflower, VA; 31 g ai/ha) was 5 and the Plant response rating (dayflower, VA; 62 g ai/ha) was 10. The Plant response rating (dayflower, VA; 125 g ai/ha) was 25, the Plant response rating (dayflower, VA; 250 g ai/ha) was 65 and the Plant response rating (surinam grass; 31 g ai/ha) was 15. It also gave a Plant response rating (surinam grass; 62 g ai/ha) of 20, a Plant response rating (surinam grass; 125 g ai/ha) of 50 and a Plant response rating (surinam grass; 250 g ai/ha) of 70. It also gave a Plant response rating (barnyardgrass [2]; 31 g ai/ha) of 20, a Plant response rating (barnyardgrass [2]; 62 g ai/ha) of 70 and a Plant response rating (barnyardgrass [2]; 125 g ai/ha) of 75. The Plant response rating (barnyardgrass [2]; 250 g ai/ha) was 95, the Plant response rating (nutsedge, yellow; 31 g ai/ha) was 0 and the Plant response rating (nutsedge, yellow; 62 g ai/ha) was 0. For the same molecule, the Plant response rating (nutsedge, yellow; 125 g ai/ha) was 0 and the Plant response rating (nutsedge, yellow; 250 g ai/ha) was 0.
